The values that follow are results of earlier work, collected in patent US11369558B1, “Multi-component nutritional supplement formulations and treatment regimen” (priority 2018, dated 2022).

The conditions of the data set: in the human body.

Consider `C[S+](C)[O-]` [DMSO, dimethyl sulfoxide], for which the “Share of DMSO converted to MSM” value is on record as “approximately 15%”.
